Assay results published in article PMC6993587, “Detection of EXP1-Specific CD4+ T Cell Responses Directed Against a Broad Range of Epitopes Including Two Promiscuous MHC Class II Binders During Acute Plasmodium falciparum Malaria” (Frontiers in Immunology, 2020).
pIC50: −log10 of the molar value. Ends that are not written are not given here.

Legend:
Assay in all cases: In vitro HLA binding assay with purified HLA-DR molecules
HLA-DR DRB1*04:05 = HLA-DR DRB1*04:05 (Homo sapiens, UniProt P01903+P01911, A100R/A169T/D86S/F76Y/I96L/K127E/L162R/M171V/N62H/P40V/Q125Y/R42H/S133A/S149N/S66Y/V115G/V209L/W38E); conditions: purified HLA-DR molecule; high affinity binding = IC50 <1,000 nM
Description: (§1) In vitro binding assays with 14 of the peptides that elicited a response were performed using purified HLA-DR molecules, as previously described (Table 3) ([37]). MHC class II in silico binding predictions were defined, using the IEDB analysis resource ([38]–[40]), combining predictions from the ANN ([41], [42]) and SMM ([43]) algorithms (Supplementary Table 2A).
(§2) To test this hypothesis, we measured the in vitro capacity of the most frequently recognized EXP1 peptides to bind to a panel of 17 of the most prevalent human HLA-DR molecules, since the majority of HLA class II restricted CD4+ T cell responses are presented by these molecules ([49], [50]). Peptides with an IC50 of 1,000 nM or lower, a threshold previously found associated with the vast majority of HLA class II-restricted T cell epitopes, were considered binders to the respective DR molecule ([51]–[53]). […] These include EXP1-P14 which bound to five, EXP1-P15 to 13, EXP1-P16 to 10 and EXP1-P17 to nine different HLA molecules (Table 3).

HLA-DR DRB1*08:02 = HLA-DR DRB1*08:02 (Homo sapiens, UniProt P01903+P01911, A100R/A103L/A169T/F76Y/H45Y/I96F/K41T/L162R/M171V/P40S/Q125H/Q178H/Q39Y/Q99D/R218S/R42G/S66Y/V115G/W38E); conditions: purified HLA-DR molecule; high affinity binding = IC50 <1,000 nM
Description: as §1, §2

HLA-DR DRB1*03:01 = HLA-DR DRB1*03:01 (Homo sapiens, UniProt P01903+P01911, A100K/A102G/A103R/A169T/F55Y/I96L/K41T/L162R/M171V/P40S/Q125H/Q178H/Q39Y/R42S/S66N/T106N/T262R/W38E/Y61H); conditions: purified HLA-DR molecule; high affinity binding = IC50 <1,000 nM
Description: as §1, §2

HLA-DR DRB1*15:01 = HLA-DR DRB1*15:01 (Homo sapiens, UniProt P01903+P01911); conditions: purified HLA-DR molecule; high affinity binding = IC50 <1,000 nM
Description: as §1, §2

HLA-DR DRB3*01:01 = HLA-DR DRB3*01:01 (Homo sapiens, UniProt P01903+P79483); conditions: purified HLA-DR molecule; high affinity binding = IC50 <1,000 nM
Description: as §1, §2

HLA-DR DRB1*01:01 = HLA-DR DRB1*01:01 (Homo sapiens, UniProt P01903+P01911, A100R/D57E/F55L/F60I/F76Y/I96L/L162R/M171V/P40L/Q125E/R42F/V115G/Y59C); conditions: purified HLA-DR molecule; high affinity binding = IC50 <1,000 nM
Description: as §1, §2

HLA-DR DRB1*04:01 = HLA-DR DRB1*04:01 (Homo sapiens, UniProt P01903+P01911, A100K/A169T/F76Y/I96L/K127E/L162R/M171V/N62H/P40V/Q125Y/R42H/S133A/S149N/S66Y/V115G/V209L/W38E); conditions: purified HLA-DR molecule; high affinity binding = IC50 <1,000 nM
Description: as §1, §2

HLA-DR DRB1*04:04 = HLA-DR DRB1*04:04 (Homo sapiens, UniProt P01903+P01911, A100R/A169T/F76Y/I96L/K127E/L162R/M171V/N62H/P40V/Q125Y/R42H/S133A/S149N/S66Y/V209L/W38E); conditions: purified HLA-DR molecule; high affinity binding = IC50 <1,000 nM
Description: as §1, §2

HLA-DR DRB4*01:01 = HLA-DR DRB4*01:01 (Homo sapiens, UniProt P01903+P13762, G164S); conditions: purified HLA-DR molecule; high affinity binding = IC50 <1,000 nM
Description: as §1, §2

HLA-DR DRB3*02:02 = HLA-DR DRB3*02:02 (Homo sapiens, UniProt P01903+P79483, A212P/D57E/F66Y/L67A/R103Q/R218S/R40L/S89Y/T80R/V86D/Y55F/Y59H); conditions: purified HLA-DR molecule; high affinity binding = IC50 <1,000 nM
Description: as §1, §2

HLA-DR DRB1*11:01 = HLA-DR DRB1*11:01 (Homo sapiens, UniProt P01903+P01911, A100R/A169T/A87E/I96F/K41T/L162R/M171V/P40S/Q125H/Q178H/Q39Y/Q99D/R42S/S66Y/T262R/V115G/W38E); conditions: purified HLA-DR molecule; high affinity binding = IC50 <1,000 nM
Description: as §1, §2

HLA-DR DRB1*10:01 = HLA-DR DRB1*10:01 (Homo sapiens, UniProt P01903+P01911, A100R/A169T/D57E/F55L/F60V/F69Y/F76Y/I96L/L162R/M171V/P40V/Q260P/Q39E/Q99R/R195Q/R42F/S149N/S66Y/T210M/V115G/V67A/W38E/Y59R/Y61H); conditions: purified HLA-DR molecule; high affinity binding = IC50 <1,000 nM
Description: as §1, §2

HLA-DR DRB1*13:01 = HLA-DR DRB1*13:01 (Homo sapiens, UniProt P01903+P01911, A100E/A169T/K41T/L162R/M171V/P40S/Q125H/Q178H/Q39Y/Q99D/R42S/S66N/T262R/W38E/Y61H); conditions: purified HLA-DR molecule; high affinity binding = IC50 <1,000 nM
Description: as §1, §2

HLA-DR DRB1*13:02 = HLA-DR DRB1*13:02 (Homo sapiens, UniProt P01903+P01911, A100E/A169T/K41T/L162R/M171V/P40S/Q125H/Q178H/Q39Y/Q99D/R42S/S66N/T262R/V115G/W38E/Y61H); conditions: purified HLA-DR molecule; high affinity binding = IC50 <1,000 nM
Description: as §1, §2

HLA-DR DRB5*01:01 = HLA-DR DRB5*01:01 (Homo sapiens, UniProt P01903+Q30154); conditions: purified HLA-DR molecule; high affinity binding = IC50 <1,000 nM
Description: as §1, §2

HLA-DR DRB1*09:01 = HLA-DR DRB1*09:01 (Homo sapiens, UniProt P01903+P01911, A100R/A103E/D57H/D86V/F55Y/F60I/F76Y/I96F/K127E/L162R/M171V/P40D/Q125H/Q99R/R33Q/R42F/S133A/S66N/T210M/V115G/W38K/Y107V/Y59G/Y89S)
HLA-DR DRB1*07:01 = HLA-DR DRB1*07:01 (Homo sapiens, UniProt P01903+P01911, A100R/A102G/A103Q/D57E/D86V/E43K/F76Y/K127E/L162R/M171V/P40G/Q125H/Q99D/R33Q/R42Y/R54Q/S133A/S66F/T210M/V115G/Y107V/Y59L/Y89S); conditions: purified HLA-DR molecule; high affinity binding = IC50 <1,000 nM
Description: as §1, §2

HLA-DR DRB1*03:01, sequence (P01903 26-254, other chains not shown): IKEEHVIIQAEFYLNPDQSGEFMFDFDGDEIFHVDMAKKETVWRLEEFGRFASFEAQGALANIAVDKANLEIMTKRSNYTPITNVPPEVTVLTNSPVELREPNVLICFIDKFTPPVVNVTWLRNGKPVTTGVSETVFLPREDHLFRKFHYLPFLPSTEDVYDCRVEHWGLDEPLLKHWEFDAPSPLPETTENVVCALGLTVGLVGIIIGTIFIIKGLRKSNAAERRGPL
HLA-DR DRB1*11:01, sequence (P01903 26-254 limits assumed, other chains not shown): as the sequence (P01903 26-254, other chains not shown) above
HLA-DR DRB1*13:02, sequence (P01903 26-254 limits assumed, other chains not shown): as the sequence (P01903 26-254, other chains not shown) above
HLA-DR DRB3*02:02, sequence (P01903 26-254 limits assumed): as the sequence (P01903 26-254, other chains not shown) above
HLA-DR DRB3*02:02, sequence (P79483 30-266 R40L/Y55F/D57E/Y59H/F66Y/L67A/T80R/V86D/S89Y/R103Q/A212P/R218S limits assumed): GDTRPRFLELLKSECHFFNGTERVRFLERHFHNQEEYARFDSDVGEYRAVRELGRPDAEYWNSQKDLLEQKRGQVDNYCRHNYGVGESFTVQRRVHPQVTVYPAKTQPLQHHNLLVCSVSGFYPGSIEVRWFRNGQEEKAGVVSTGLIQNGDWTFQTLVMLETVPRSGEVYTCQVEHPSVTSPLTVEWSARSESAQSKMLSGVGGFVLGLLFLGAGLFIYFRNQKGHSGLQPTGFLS

| Compound | pIC50 (HLA-DR DRB1*04:05) | pIC50 (HLA-DR DRB1*08:02) | pIC50 (HLA-DR DRB1*03:01) | pIC50 (HLA-DR DRB1*15:01) | pIC50 (HLA-DR DRB3*01:01) | pIC50 (HLA-DR DRB1*01:01) | pIC50 (HLA-DR DRB1*04:01) | pIC50 (HLA-DR DRB1*04:04) | pIC50 (HLA-DR DRB4*01:01) | pIC50 (HLA-DR DRB3*02:02) | pIC50 (HLA-DR DRB1*11:01) | pIC50 (HLA-DR DRB1*10:01) | pIC50 (HLA-DR DRB1*13:01) | pIC50 (HLA-DR DRB1*13:02) | pIC50 (HLA-DR DRB5*01:01) | pIC50 (HLA-DR DRB1*09:01) | pIC50 (HLA-DR DRB1*07:01) |
| --- | --- | --- | --- | --- | --- | --- | --- | --- | --- | --- | --- | --- | --- | --- | --- | --- | --- |
| EPLIDVHDLISDMIK [EXP1-P10] | 4.51 | 5.55 | 5.17 | 4.54 | 5.10 | 5.22 | 4.56 | 5.96 | 6.79 |  |  |  |  |  |  |  |  |
| GVGLVLYNTEKGRHP [EXP1-P20] | 5.53 | 8.03 | 5.35 | 7.62 |  | 5.05 | 7.59 | 8.04 | 7.09 | 5.30 | 6.74 | 5.10 | 6.91 | 4.77 | 6.27 |  |  |
| CC(C)C[C@H](NC(=O)CNC(=O)[C@@H](NC(=O)CNC(=O)CNC(=O)[C@H](CC(C)C)NC(=O)[C@H](CC(C)C)NC(=O)[C@@H](NC(=O)[C@@H](N)[C@@H](C)O)C(C)C)C(C)C)C(=O)N[C@H](C(=O)N[C@@H](CC(C)C)C(=O)N[C@@H](Cc1ccc(O)cc1)C(=O)N[C@@H](CC(N)=O)C(=O)N[C@H](C(=O)N[C@@H](CCC(=O)O)C(=O)O)[C@@H](C)O)C(C)C [EXP1-P19] | 5.31 |  |  | 6.66 |  | 8.07 | 5.61 | 4.70 | 5.08 |  |  | 4.47 | 5.13 |  | 5.93 | 5.35 | 5.40 |
| LGVVSTVLLGGVGLV [EXP1-P18] | 5.30 | 5.74 |  | 6.52 | 4.87 | 7.72 | 5.69 | 6.09 | 6.71 |  | 5.18 | 5.72 | 5.07 | 5.49 | 5.61 | 6.31 | 6.36 |
| SVFFLALFFIIFNKE [EXP1-P02] | 5.37 | 5.53 | 4.91 | 5.81 | 4.97 | 4.93 | 5.38 | 5.58 | 4.76 |  |  | 5.40 | 5.19 |  | 5.16 | 6.19 | 5.10 |
| NANPDADSESNGEPN [EXP1-P25] | 4.74 | 5.40 |  | 5.96 |  | 4.71 | 4.78 | 4.90 | 4.92 |  | 4.63 | 4.47 |  |  | 4.51 |  |  |
| SKKKNKKGSGEPLID [EXP1-P08] |  | 4.52 |  |  |  |  |  |  |  |  |  |  |  |  |  |  |  |
